Source: ChEMBL document CHEMBL3507680, “University of Dundee, Gates Library screen for HepG2 cell viability”

Experiment: Human HepG2 cell viability assay in 384 well format
Assay type: toxicity, cell-based
Design: dose 125 nL, time 70.5 hour; cytotoxicity at 70.5 h: concentration not given beside the values
Conditions: HepG2 cells, read-out: Inhibition

| SMILES | cytotoxicity at 70.5 h [%] |
| --- | --- |
| CN(Cc1ccc(F)cc1)Cc1nc(-c2cnccn2)no1 | -7.07 |
| O=C([C@H]1CCCO1)N1CCC2(CC1)Cc1ccccc1CNC2=O | 3.51 |
| Cc1cccc(-c2nnn3c2COC(CNC(=O)N2CCCC2)C3)c1 (stereo not given) | 1.74 |
| O=C1CO[C@@H]2CNC[C@H]2N1CC1CC1 | 2.73 |
| Cc1ccc2c(c1)C(N1CCOCC1)CC21CCNCC1 (stereo not given) | -8.36 |
| CCc1cnc(N2C[C@H]3CCCC(N(C)Cc4ccccn4)[C@H]3C2)nc1 (stereo not given in full) | -10.1 |
| CC(C)Cn1c2c(ccc1=O)CC(NC(=O)c1ccsc1)CC2 (stereo not given) | -11.8 |
| CS(=O)(=O)N1CCOCC2(CCN(c3cnccn3)CC2)C1 | -7.29 |
| Cn1cccc1C(=O)N1C[C@H]2CN(CCN3CCCC3)C(=O)[C@H]2C1 | -8.62 |
| Cc1cnc(C(=O)N2CCC3(CCCN(c4nncs4)C3)C2)cn1 (stereo not given) | -0.974 |
| COc1ccc(C(=O)N2CCN(C(=O)Cn3nccc3C)CC2)cc1 | 1.46 |
| Cc1nc(CN(C)CC2CCCN(CCc3ccc(Cl)cc3)C2)n(C)n1 (stereo not given) | -19.1 |
| CS(=O)(=O)N1CCc2[nH]cnc2C12CCN(C(=O)c1ccc[nH]1)CC2 | -3.3 |
| Cc1nc(-c2ccncc2)ncc1C(C)NC(=O)C1=NN(C)C(=O)CC1 (stereo not given) | -8.41 |
| Nc1cc(N2CCCC(CO)(Cc3ccccc3F)C2)nc(N)n1 (stereo not given) | 28.8 |
| Cc1ccc(NC2(C(=O)NCc3c(C)n[nH]c3C)CCCC2)cc1 | -5.51 |
| COc1cccc(C(=O)C2CCCN(c3cc(C#N)ccn3)C2)c1 (stereo not given) | -10.3 |
| O=C(NCCn1cccc1)C1CCN(C2CCCCC2)CC1 | -13.6 |
| COc1ccc(C)cc1-n1c(COC(C)C)n[nH]c1=O | -18.9 |
| O=C(c1cccc(S(=O)(=O)NCCc2nccs2)c1)N1CCOCC1 | -3.1 |
| COc1cccc(CC(=O)N2CCCN(c3ccnc(C)c3)CC2)c1 | -3.97 |
| CCN1CCN(S(=O)(=O)N2CCC(OC)CC2)[C@H]2CS(=O)(=O)C[C@H]21 | -9.02 |

| SMILES | cytotoxicity at 70.5 h [%] |
| --- | --- |
| Cc1ccccc1SC1CCN(C(=O)C2CNCC(=O)N2)CC1 (stereo not given) | -1.6 |
| CN(CCCc1ccccc1)C(=O)c1cn2c(n1)CNCC2 | -3.6 |
| COc1ccc(N2CCN(Cc3nc(CSC)no3)C(C)C2=O)cc1 (stereo not given) | -21.8 |
| CCCSc1ccccc1NC(=O)N1CCC(N2CCSCC2)CC1 | 0.648 |
| Cc1cc(-c2c(C)c(-c3cnn(C)c3)nc(N)c2C#N)oc1C | 37.4 |
| CN(C)C(=O)CN1C[C@@H]2CC[C@H](C1)N(C(=O)CCCn1cncn1)C2 | -8.72 |
| FC(F)(F)c1ccnc(N2CCC(c3nccn3CC3CC3)CC2)n1 | -4.46 |
| COc1c(C)cc(S(=O)(=O)NCC2CNCCOC2)cc1C (stereo not given) | 3.62 |
| Cc1nc2ccccc2n1Cc1cc(C(=O)NC2CCOC2)no1 (stereo not given) | -18.8 |
| CC(C)n1ccnc1C1CCCN(c2nc3ccccc3s2)C1 (stereo not given) | 2.12 |
| CN(C)CC(=O)Nc1ccc(C(=O)N(C)CCc2cn[nH]c2)cc1 | -1.37 |
| Cc1cc2[nH]c(CN3CCCCC3c3cccc(F)c3)cc(=O)n2n1 (stereo not given) | -5.96 |
| CC(C)CN(Cc1ccccn1)Cc1ccccc1C(=O)O | 14.4 |
| Cc1ccc(C(=O)N2CCC3(CC2)CN(CCN(C)C)C(=O)O3)c(F)c1 | 7.08 |
| COc1cc(OC)cc(C2CC(=O)Nc3c2nc2n3CCCC2)c1 (stereo not given) | -3.11 |
| CC(C)c1nnc(CN2CCC3(CC2)Nc2ccccc2NC3=O)o1 | 18 |
| CC(C)S(=O)(=O)NCc1cccnc1Oc1ccc(F)cc1F | 1.03 |
| CC(C)N(C)C(=O)Cn1ncc(N(C)CCc2ccccc2)cc1=O | -3.47 |
| NC(=O)c1cnc2n1CCN(C(=O)c1cccc(Cn3cccn3)c1)C2 | -5.38 |
| CC1(c2ccccc2)CCC(=O)N(CC2(N3CCOCC3)CCCC2)C1 (stereo not given) | 6.77 |
| Nc1ncc(CN2CCC(CCC(=O)NC3CC3)CC2)cn1 | 0.29 |
| Cc1cc(N2CCN(C(=O)c3cnn(C(C)C)c3)CC2)cc(C)n1 | 7.11 |

| SMILES | cytotoxicity at 70.5 h [%] |
| --- | --- |
| CCOc1ccc(OCc2nc3c(c(=O)[nH]2)CCNC3)cc1 | -13.5 |
| CNc1ccnc(N2CCC(c3nnc(CN4CCCC4)n3C)CC2)n1 | 13.4 |
| CN(CCCc1cnn(C)c1)c1nccc(-c2cc(C(=O)O)ccn2)n1 | -5.12 |
| O=C1NCCCc2[nH]c(-c3nc(C4CCCCC4)no3)nc21 | 8.47 |
| O=C(c1cn2cc(Cl)cnc2n1)N1CCOCC(O)(CN2CCCC2)C1 (stereo not given) | -1.97 |
| Cc1cc(C)c(C(=O)N2CCN(c3ncccc3C#N)CC2)c(=O)[nH]1 | 1.08 |
| Cc1nc(CN2CCC(c3cc(N4CCCC4)ncn3)CC2)cs1 | 4.68 |
| COCCCn1cnnc1CNC(=O)c1[nH]c2c(C)cc(C)cc2c1C | -6.04 |
| CCc1ocnc1C(=O)N1CCC(n2cc(-c3ccsc3)nn2)CC1 | -10.3 |
| CC(=O)NCC(=O)N1Cc2cnc(CC(C)C)nc2C1 | -5.57 |
| CCC(CO)N(Cc1ccco1)C(=O)c1sccc1NC(C)=O (stereo not given) | -5.95 |
| CN(C)CCNCC1(O)CCCN(Cc2cccc(F)c2F)C1=O (stereo not given) | 16.1 |
| CCCN1CC2(CCN(C)CC2)CC1C(=O)NCCn1cccn1 (stereo not given) | -6 |
| CN(C)[C@H]1CCN(c2ccnc(C(=O)NCc3ccco3)c2)C1 | -5.04 |
| COCC1CCN(Cc2cc(O)c3c(C)ccc(C)c3n2)CC1 | 17.7 |
| CN(CCc1cnn(C)c1)C(=O)C1COc2ccccc2C1 (stereo not given) | -10.5 |
| OC1(CN2CCCC2)COCCN(c2nnc(-c3ccccc3)s2)C1 (stereo not given) | 15.8 |
| N[C@H]1CN(C(=O)CCc2cc(Cl)no2)C[C@@H]1c1ccccc1 | 29 |
| CC(=O)c1cc(CC(=O)N2CCCC2c2nc(C(C)C)no2)cs1 (stereo not given) | -3.24 |
| CCN1CCC(CC(=O)NCc2cc(C)nn2C)CC1 | -4.69 |
| Cc1cccc(N2CCN(CCC(=O)NCc3cccnc3)CC2)c1 | -0.687 |
| CC(C)NC(=O)N1CCCC(c2nnc(CN3CCOCC3)n2C)C1 (stereo not given) | -10.9 |

| SMILES | cytotoxicity at 70.5 h [%] |
| --- | --- |
| Cn1ccc2c(-c3cc(N4CCCCC4)ncn3)ccnc21 | 24.9 |
| O=C1NCC2(CCCN(C(=O)c3csc(-c4cccs4)n3)C2)O1 (stereo not given) | -14.3 |
| CC(C)CC(C)NCc1cccnc1N1CCN(c2ccccn2)CC1 (stereo not given) | -12.3 |
| CCc1nnc(CN(CC)C(=O)C2CC(=O)N(C3CC3)C2)o1 (stereo not given) | -3.34 |
| O=C1CCC2(CCOC2)CN1Cc1nc2ccc(Cl)cc2[nH]1 (stereo not given) | -1.72 |
| CN1C[C@@H]2CC[C@H](CC1=O)N2C(=O)c1ccc(-c2ccccc2)[nH]c1=O | -8.24 |
| CCC1CN(C(=O)c2ccc(O)c(C)c2)CCN1C(C)C (stereo not given) | -5.22 |
| CCc1cc(CN2CCCCC2c2ccc(F)cc2)on1 (stereo not given) | -5.55 |
| O=C1CCCN1CCCNCc1cc(O)c2cccc(F)c2n1 | -3.49 |
| CC(=O)N1CCc2c(nc(N(C)C)nc2N(C)CC2CCCO2)C1 (stereo not given) | -6.61 |
| Cc1cccc(C(C(=O)NCCc2nc(C)cc(=O)[nH]2)N(C)C)c1 (stereo not given) | 25.6 |
| Cc1ccnc(N2CCCC(c3nccn3C(C)C)C2)n1 (stereo not given) | 1.49 |
| Cc1c(C(=O)N2C[C@@H](CN(C)CCO)[C@@H](CO)C2)sc2ccccc12 | -9.44 |
| CC(C)c1nccn1C(C)C(=O)NC1Cc2ccccc2C1 (stereo not given) | -1.16 |
| N#Cc1ccc(C(=O)N2CCCC3(C=Cc4ccccc4O3)CC2)cn1 (stereo not given) | 7.89 |
| Cn1ccnc1CN1CCN(Cc2ccccc2)[C@@H]2CS(=O)(=O)C[C@@H]21 | -9.92 |
| O=C1NCCN2CCN(Cc3ccc(Cl)c(Cl)c3)CC12 (stereo not given) | -8.1 |
| CCCC(C(=O)NC1CCN(S(C)(=O)=O)CC1)n1cccc1 (stereo not given) | -3.64 |
| Cc1ccccc1N1CCN(C(=O)c2cscn2)C(C)C1 (stereo not given) | -1.54 |
| Cc1nc(N)sc1C(=O)N[C@H]1CN(CCO)C[C@@H]1C1CC1 | -2.54 |
| O=S1(=O)CCC(n2cc(C3=CCN(CCN4CCCCC4)CC3)cn2)C1 (stereo not given) | -7.91 |
| CC(C)=CCN1C[C@H]2CC[C@@H]1CN(C(=O)c1ccc(S(N)(=O)=O)cc1)C2 | 1.36 |

| SMILES | cytotoxicity at 70.5 h [%] |
| --- | --- |
| COCCN1CCN(Cc2nc3c(s2)CCCC3)[C@H]2CS(=O)(=O)C[C@H]21 | -8.18 |
| O=C(Nc1ccc(-c2ccn[nH]2)cc1)C1CCCN(Cc2ccoc2)C1 (stereo not given) | 1.09 |
| CCN(CCO)C(=O)C1CCC(=O)N(Cc2cccc(OC)c2)C1 (stereo not given) | -13.2 |
| Cn1cc(CN2CCOC(CCNC(=O)c3ccsc3)C2)cn1 (stereo not given) | -0.896 |
| CC(=O)NCCNC(=O)C1(Oc2cccnc2C)CCNCC1 | -5.79 |
| Nc1nccc(N2CCNC(C(=O)NCc3ccccn3)C2)n1 (stereo not given) | 10.1 |
| O=c1c2cccnc2ccn1Cc1nccn1C1CC1 | -10.2 |
| Cc1noc(C)c1CC(=O)N1CCCC(Cn2ccnc2C)C1 (stereo not given) | -16.8 |
| Oc1cc(CN2CCC(O)(Cn3ccnc3)CC2)nc2c(Cl)cccc12 | -9.08 |
| Cc1nn(C)c2nc(N3CCCCC3c3ccc(F)cc3)sc12 (stereo not given) | 0.992 |
| CCc1cnc(NCC(c2cccnc2)N2CCOCC2)nc1 (stereo not given) | -1.2 |
| COCC(=O)N(Cc1cccnc1)CC1CCN(C2CCCC2)CC1 | 1.31 |
| Cc1cc(C)n2nc(C(=O)N3CCCC4(CNC(=O)O4)C3)cc2n1 (stereo not given) | 13.7 |
| Cc1ccc(CN2CCC3(C2)C(=O)N(CC(N)=O)c2ccccc23)s1 (stereo not given) | -3.49 |
| O=C(O)c1cccc(N2CCC(Oc3cccc(F)c3)CC2)n1 | -7 |
| Cc1nn2c(N3CCCC(C(N)=O)C3)cc(-c3ccccc3)nc2c1C (stereo not given) | -3.49 |
| CCN1CCOCC12CCN(c1nccs1)CC2 | -13.5 |
| O=C(NCc1cnc2n1CCN(CC1CCOCC1)C2)c1ccno1 | 31.3 |
| OCCOCc1n[nH]c2c1CN(Cc1ccccn1)C2 | -7.78 |
| Cc1cncc(C(=O)N2CCC3(CCCN(c4nncs4)C3)C2)c1 (stereo not given) | -3.85 |
| O=C(NCc1cnc2n1CCN(Cc1nccs1)C2)c1ccno1 | -3.38 |
| O=C(Nc1cccnc1)[C@H]1CN(Cc2ccco2)C[C@H]2OCC[C@@H]12 | -7.09 |
